Test systems include A549 NSCLC; U251 CNS; A498 renal; ACHN renal; OVCAR-8 ovarian; UACC-62 melanoma; MCF7 breast; UO-31 renal; TK-10 renal; SR leukemia.
Assay in all cases: growth of human tumour cells (NCI), 48 h

Experimental findings from PubChem BioAssay (NCI) are described below.

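48-hour exposure; five concentrations; linearly interpolated endpoints. GI50: concentration for 50% inhibition of growth. TGI: total growth inhibition.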

Take `FC(F)(F)c1ccc2c(c1)N(CCCN1CCN(C3CC3)CC1)c1ccccc1S2`: the GI50 with A549 NSCLC is 10.9 µM; with U251 CNS, 4.94 µM; with A498 renal it was 11 µM; with ACHN renal it was 10.6 µM; in the assay with OVCAR-8 ovarian, 13 µM; with UACC-62 melanoma, 14.1 µM. Also, the GI50 in the assay on MCF7 breast is 9.53 µM; in the assay on UO-31 renal it was 8.13 µM; in the assay with TK-10 renal it was 13.8 µM; in the assay with SR leukemia, 3.79 µM. Also, the TGI was found to be 23.5 µM with A549 NSCLC; 18 µM in the assay on U251 CNS; 23.3 µM in the assay with A498 renal; 24.6 µM in the assay on ACHN renal; 26.8 µM with OVCAR-8 ovarian; 30.1 µM with UACC-62 melanoma. Moreover, the TGI in the assay with MCF7 breast stood at 22.1 µM; with UO-31 renal, 22.9 µM; with TK-10 renal it was 27.2 µM; in the assay with SR leukemia it was 15.6 µM.

`Nc1cc(N)c2nc(-c3ccccc3)c(Nc3ccc(F)cc3)nc2c1`: the GI50 with A549 NSCLC is 17.2 µM; in the assay on U251 CNS, 5.65 µM; in the assay with A498 renal it was 17.4 µM; with ACHN renal, 10.3 µM; in the assay on OVCAR-8 ovarian, 12.4 µM; in the assay with UACC-62 melanoma, 16.1 µM. Further, the GI50 was 12.5 µM with MCF7 breast, 16.9 µM in the assay on UO-31 renal, 17.3 µM with TK-10 renal and 5.36 µM in the assay with SR leukemia. The TGI with A549 NSCLC turned out to be 44.6 µM; in the assay with U251 CNS, 20 µM; in the assay with A498 renal, 33.8 µM; in the assay on ACHN renal, 22.5 µM; in the assay on OVCAR-8 ovarian, 30.3 µM; in the assay with UACC-62 melanoma, 31.7 µM. For the same compound, the TGI is > 100 µM with MCF7 breast, 61.4 µM with UO-31 renal, 35.6 µM in the assay on TK-10 renal and > 100 µM in the assay on SR leukemia.

Consider `CC1(C)OC2C(CO)OC(n3ccc(=O)[nH]c3=O)C2O1` (stereo not given), for which the TGI with A549 NSCLC, with U251 CNS, with A498 renal, in the assay with ACHN renal, with OVCAR-8 ovarian and with UACC-62 melanoma was > 100 µM each time. For the same compound, the TGI in the assay on MCF7 breast, in the assay on UO-31 renal, with TK-10 renal and with SR leukemia was > 100 µM in each case.

Take `Cc1ccc(NC(=O)c2ccnc(C(F)(F)F)c2)cc1-c1cc(OCCO)nc(N2CCOCC2)c1`: the GI50 with A549 NSCLC is 3.21 µM; with U251 CNS, 4.7 µM; in the assay with A498 renal, 1.06 µM; in the assay on ACHN renal, 2.99 µM; in the assay with OVCAR-8 ovarian, 4.08 µM; in the assay with UACC-62 melanoma, 0.315 µM. Moreover, the GI50 in the assay on MCF7 breast is 2.28 µM; in the assay on UO-31 renal, 0.495 µM; in the assay with TK-10 renal, 6.66 µM; in the assay with SR leukemia it was 0.613 µM. The TGI in the assay with A549 NSCLC is 28.9 µM; in the assay with U251 CNS, 28.8 µM; in the assay on A498 renal, 3.74 µM; with ACHN renal, 80.1 µM; in the assay with OVCAR-8 ovarian it was > 100 µM; in the assay with UACC-62 melanoma, 4.54 µM. Moreover, the TGI in the assay with MCF7 breast was 17.8 µM; in the assay with UO-31 renal, 13.1 µM; in the assay with TK-10 renal, > 100 µM; with SR leukemia, > 100 µM.

For the compound `CCOC(=O)C1CCC/C1=N\N=C(N)N` (stereo not given) (tested in a mixture with another compound), the TGI with A549 NSCLC, with U251 CNS, with A498 renal, in the assay on ACHN renal, in the assay with OVCAR-8 ovarian and with UACC-62 melanoma was > 100 µM in each case. In addition, the TGI in the assay with MCF7 breast, in the assay on UO-31 renal, in the assay on TK-10 renal and in the assay on SR leukemia was > 100 µM in each case.

For `OCCNc1nc(NCCO)nc(Nc2ccc(C3=NN(c4cc(Cl)cc(Cl)c4)C(c4ccc(Cl)cc4)C3)cc2)n1` (stereo not given), the GI50 is 1.96 µM with A549 NSCLC; 1.51 µM in the assay with U251 CNS; 1.73 µM with A498 renal; 1.55 µM in the assay with ACHN renal; 2.08 µM in the assay with OVCAR-8 ovarian; 1.72 µM in the assay with UACC-62 melanoma. Moreover, the GI50 is 1.42 µM in the assay with MCF7 breast, 1.63 µM in the assay with UO-31 renal, 1.89 µM with TK-10 renal and 1.45 µM in the assay on SR leukemia. Moreover, the TGI in the assay on A549 NSCLC came out at 4.45 µM; in the assay on U251 CNS it was 3.04 µM; in the assay on A498 renal, 3.57 µM; with ACHN renal it was 3.17 µM; in the assay on OVCAR-8 ovarian, 4.75 µM; in the assay on UACC-62 melanoma, 3.37 µM. In addition, the TGI came to 3.31 µM in the assay on MCF7 breast, 3.16 µM with UO-31 renal, 3.72 µM in the assay with TK-10 renal and 3.31 µM in the assay with SR leukemia.

With `CCN(CC)CCC(=O)Nc1cccc2c1C(=O)c1c(c(O)c3ccccc3c1O)C2=O`, the GI50 in the assay on A549 NSCLC is 17.7 µM; with U251 CNS it was 10.2 µM; in the assay on A498 renal, 17.7 µM; in the assay with ACHN renal, 4.63 µM; in the assay on OVCAR-8 ovarian, 10.5 µM; in the assay on UACC-62 melanoma, > 100 µM. For the same compound, the GI50 with MCF7 breast was 6.77 µM; in the assay on UO-31 renal, 1.12 µM; in the assay with TK-10 renal, 20.9 µM; in the assay with SR leukemia, 0.878 µM. For the same compound, the TGI in the assay with A549 NSCLC is 57 µM; in the assay with U251 CNS, 22.7 µM; in the assay with A498 renal it was 47.6 µM; in the assay on ACHN renal, 38.5 µM; in the assay on OVCAR-8 ovarian it was 26.9 µM; in the assay on UACC-62 melanoma, > 100 µM. Also, the TGI in the assay with MCF7 breast stood at 22.9 µM; in the assay on UO-31 renal, 3.31 µM; in the assay with TK-10 renal, 40.9 µM; with SR leukemia, 52.4 µM.

Consider `C=C1C(=O)O[C@H]2[C@H]1CC/C(COC(=O)NCCc1ccc(OC)cc1)=C\CC[C@@]1(C)O[C@@H]21`, for which the GI50 in the assay on A549 NSCLC is 13.2 µM; in the assay with U251 CNS, 11.1 µM; with A498 renal, 4.52 µM; with ACHN renal, 1.72 µM; with OVCAR-8 ovarian it was 2.77 µM; in the assay on UACC-62 melanoma it was 1.25 µM. Moreover, the GI50 is 1.89 µM with MCF7 breast, 1.76 µM with UO-31 renal, 2.73 µM in the assay with TK-10 renal and 2.07 µM in the assay with SR leukemia. The TGI came out at 28.4 µM in the assay on A549 NSCLC; 23.5 µM with U251 CNS; 18.1 µM with A498 renal; 3.55 µM with ACHN renal; 7.7 µM in the assay with OVCAR-8 ovarian; 3.05 µM with UACC-62 melanoma. The TGI in the assay with MCF7 breast was found to be 4.79 µM; with UO-31 renal, 3.26 µM; with TK-10 renal, 7.62 µM; in the assay on SR leukemia it was 7.87 µM.

Turning to `CN(C)c1cccc2[nH]c(-c3[nH]ncc3Nc3ccnc(N)n3)nc12`, the GI50 is 0.0331 µM with A549 NSCLC; < 0.0119 µM in the assay on U251 CNS; 0.013 µM in the assay on A498 renal; 0.0165 µM with ACHN renal; 0.0213 µM with OVCAR-8 ovarian; 0.0136 µM with UACC-62 melanoma. Further, the GI50 with MCF7 breast is 0.0206 µM; in the assay on UO-31 renal, < 0.0142 µM; with TK-10 renal, 0.0399 µM; with SR leukemia, < 0.01 µM. Moreover, the TGI in the assay on A549 NSCLC amounted to 1.15 µM; in the assay with U251 CNS it was 1.33 µM; in the assay on A498 renal it was 0.037 µM; with ACHN renal, 0.679 µM; with OVCAR-8 ovarian it was 1.68 µM; with UACC-62 melanoma, 0.0701 µM. Further, the TGI in the assay on MCF7 breast amounted to 1.15 µM; in the assay with UO-31 renal, 0.276 µM; in the assay on TK-10 renal it was 1.01 µM; in the assay with SR leukemia, 5.47 µM.

In the case of `COc1ccc2c(c1)[nH]c(=O)c1c3cccnc3cn21`, the GI50 in the assay on A549 NSCLC was 0.0479 µM; with U251 CNS, 0.041 µM; in the assay with A498 renal, 0.0335 µM; with ACHN renal, 0.082 µM; in the assay on OVCAR-8 ovarian it was 0.0514 µM; in the assay on UACC-62 melanoma it was 0.0431 µM. Further, the GI50 with MCF7 breast is 0.0965 µM; in the assay on UO-31 renal, 0.0797 µM; in the assay with TK-10 renal, 0.056 µM; in the assay on SR leukemia it was 0.0271 µM. For the same compound, the TGI in the assay with A549 NSCLC amounted to 24.4 µM; in the assay on U251 CNS, 12.2 µM; in the assay with A498 renal, 4.53 µM; in the assay on ACHN renal, 13 µM; in the assay on OVCAR-8 ovarian, 21.2 µM; in the assay with UACC-62 melanoma, 19.3 µM. The TGI in the assay with MCF7 breast was 14.1 µM; in the assay on UO-31 renal, 14.6 µM; in the assay on TK-10 renal, 18.8 µM; with SR leukemia, 5.75 µM.

Turning to `COc1ccc(C2CC(=O)Nc3c2c(C)nn3-c2nc3ccccc3[nH]2)cc1` (stereo not given), the GI50 in the assay on A549 NSCLC is 3.04 µM; with U251 CNS, 2.56 µM; in the assay on A498 renal it was 1.89 µM; in the assay on ACHN renal, 3.55 µM; with OVCAR-8 ovarian, 3.76 µM; with UACC-62 melanoma it was 1.94 µM. Moreover, the GI50 with MCF7 breast is 3.11 µM; in the assay with UO-31 renal, 3.19 µM; in the assay on TK-10 renal, 4.08 µM; in the assay with SR leukemia it was 2.96 µM. Moreover, the TGI in the assay on A549 NSCLC is 15.1 µM; in the assay on U251 CNS it was 7.04 µM; with A498 renal it was 5.46 µM; with ACHN renal, > 57.4 µM; in the assay with OVCAR-8 ovarian it was > 100 µM; with UACC-62 melanoma, 4.16 µM. Further, the TGI in the assay with MCF7 breast is > 34 µM; with UO-31 renal it was 15.8 µM; with TK-10 renal, > 38.9 µM; with SR leukemia it was > 25.1 µM.
